Assays:
[1] = target: T1, Prostaglandin G/H synthase 1 (Ovis aries, UniProt P05979)
T1 sequence (P05979 whole entry): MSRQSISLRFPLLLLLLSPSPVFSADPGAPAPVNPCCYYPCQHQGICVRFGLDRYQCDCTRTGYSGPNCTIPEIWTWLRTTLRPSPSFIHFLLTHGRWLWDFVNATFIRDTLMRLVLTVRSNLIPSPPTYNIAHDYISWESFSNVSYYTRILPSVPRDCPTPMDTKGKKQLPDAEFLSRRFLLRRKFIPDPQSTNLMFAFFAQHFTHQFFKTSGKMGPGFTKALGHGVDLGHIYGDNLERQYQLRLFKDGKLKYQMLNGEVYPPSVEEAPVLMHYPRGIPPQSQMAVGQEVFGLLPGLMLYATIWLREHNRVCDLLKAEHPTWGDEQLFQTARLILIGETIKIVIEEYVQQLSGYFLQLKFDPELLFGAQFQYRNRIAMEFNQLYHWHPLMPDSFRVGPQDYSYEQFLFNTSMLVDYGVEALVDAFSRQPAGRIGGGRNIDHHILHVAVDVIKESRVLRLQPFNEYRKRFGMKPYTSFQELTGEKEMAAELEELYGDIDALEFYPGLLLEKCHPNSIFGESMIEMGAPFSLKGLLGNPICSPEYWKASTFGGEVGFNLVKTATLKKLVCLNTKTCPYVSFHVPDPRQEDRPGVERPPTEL
Description: Inhibition of ovine COX1 by chemiluminescence assay

Ovis aries = species on record: Ovis aries; assay: Selectivity index, ratio of IC50 for ovine COX1 to IC50 for ovine COX2

| IC50 [1] | Ratio IC50 (Ovis aries) | Structure (SMILES) |
| --- | --- | --- |
| 16.5 µM |  | CS(=O)(=O)c1ccc(C2Sc3ccccc3C(=O)N2c2ccccc2)cc1 (configuration not stated) |
| 13 µM |  | CS(=O)(=O)c1ccc(C2Sc3ccccc3C(=O)N2c2ccc(F)cc2)cc1 (configuration not stated) |
| 14.8 µM |  | COc1ccc(N2C(=O)c3ccccc3SC2c2ccc(S(C)(=O)=O)cc2)cc1 (configuration not stated) |
| 15.9 µM |  | CS(=O)(=O)c1ccc(C2Sc3ccccc3C(=O)N2CCc2ccccc2)cc1 (configuration not stated) |
| 16.1 µM | 252 | Cc1ccc(N2C(=O)c3ccccc3SC2c2ccc(S(C)(=O)=O)cc2)cc1 (configuration not stated) |
| 15.8 µM |  | CS(=O)(=O)c1ccc(C2Sc3ccccc3C(=O)N2Cc2ccccc2)cc1 (configuration not stated) |
